Measured values: patent publication US20240124470A1, “FIVE-MEMBERED RING DERIVATIVE AND MEDICAL USE THEREOF” (SICHUAN HAISCO PHARMACEUTICAL CO., LTD., priority 2020, published 2024)
pIC50: −log10 of the molar value.

Key:
hERG potassium channel = target: T1, hERG potassium channel (Homo sapiens, UniProt Q12809); assay: Effects on hERG potassium channels, manual whole cell patch-clamp in CHO cells; type: cell-based; conditions: hERG potassium current, room temperature
T1 construct: expressed in transfected cells
T1 sequence (Q12809 whole entry): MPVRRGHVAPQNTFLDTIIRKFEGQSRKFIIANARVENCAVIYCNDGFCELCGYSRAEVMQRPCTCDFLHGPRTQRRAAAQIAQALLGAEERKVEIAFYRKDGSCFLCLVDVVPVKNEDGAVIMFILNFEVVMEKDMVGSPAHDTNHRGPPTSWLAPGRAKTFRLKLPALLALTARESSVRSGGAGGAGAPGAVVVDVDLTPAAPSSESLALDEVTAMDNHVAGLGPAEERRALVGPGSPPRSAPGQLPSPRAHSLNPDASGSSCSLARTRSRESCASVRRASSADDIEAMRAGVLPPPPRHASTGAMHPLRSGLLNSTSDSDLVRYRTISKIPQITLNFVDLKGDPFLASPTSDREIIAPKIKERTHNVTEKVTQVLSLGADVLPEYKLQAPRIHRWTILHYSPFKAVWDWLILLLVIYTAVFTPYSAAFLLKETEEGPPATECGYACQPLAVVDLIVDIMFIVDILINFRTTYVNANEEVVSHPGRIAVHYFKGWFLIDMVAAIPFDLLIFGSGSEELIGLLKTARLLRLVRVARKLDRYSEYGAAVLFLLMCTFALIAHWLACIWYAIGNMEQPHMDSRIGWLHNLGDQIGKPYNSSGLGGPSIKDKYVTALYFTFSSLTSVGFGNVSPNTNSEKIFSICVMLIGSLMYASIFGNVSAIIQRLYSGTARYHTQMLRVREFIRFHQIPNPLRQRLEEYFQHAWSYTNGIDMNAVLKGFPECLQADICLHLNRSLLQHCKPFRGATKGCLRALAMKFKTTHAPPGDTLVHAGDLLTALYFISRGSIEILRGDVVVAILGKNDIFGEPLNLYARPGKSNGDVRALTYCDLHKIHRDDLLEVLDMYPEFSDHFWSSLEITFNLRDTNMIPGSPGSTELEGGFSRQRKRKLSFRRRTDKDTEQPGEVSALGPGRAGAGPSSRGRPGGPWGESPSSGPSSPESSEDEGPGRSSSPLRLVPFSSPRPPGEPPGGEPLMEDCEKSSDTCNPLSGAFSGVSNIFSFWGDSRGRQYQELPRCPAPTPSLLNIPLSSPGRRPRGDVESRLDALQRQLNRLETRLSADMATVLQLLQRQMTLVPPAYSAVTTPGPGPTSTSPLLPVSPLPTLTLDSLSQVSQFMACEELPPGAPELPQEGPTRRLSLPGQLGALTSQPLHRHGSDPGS
Excerpt: 2. Effects of the Compounds on hERG Potassium Channels
Experimental platform: electrophysiological manual patch-clamp system
Cell line: Chinese hamster ovary (CHO) cells stably expressing hERG potassium ion channel
Experimental method: For CHO (Chinese Hamster Ovary) cells stably expressing hERG potassium channel, whole cell patch-clamp technique was used to recorded hERG potassium channel current at room temperature in this experiment. The glass microelectrode is made of a glass electrode blank (BF150-86-10, Sutter) by a puller. The tip resistance after filling the liquid in the electrode is about 2-5 MΩ. The glass microelectrode can be connected to the patch-clamp amplifier by inserting the glass microelectrode into an amplifier probe. The clamping voltage and data recording are controlled and recorded by the pClamp 10 software through a computer. The sampling frequency is 10 kHz, and the filtering frequency is 2 kHz. After the whole cell records were obtained, the cells were clamped at −80 mV, and the step voltage that induced the hERG potassium current (IhERG) was depolarized from −80 mV to +20 mV for 2 s, then repolarized to −50 mV, and returned to −80 mV after 1 s. This voltage stimulation was given every 10 s, and the administration process was started after the hERG potassium current was confirmed to be stable (at least 1 minute). The compound was administered for at least 1 minute at each test concentration, and at least 2 cells (n≥2) were tested at each concentration.
Data analysis processing was carried out by using pClamp 10, GraphPad Prism 5 and Excel software. The inhibition degree of hERG potassium current (peak value of hERG tail current induced at −50 mV) at different compound concentrations was calculated by the following formula: Inhibition %=[1−(I/Io)]×100%.
Among the formula, Inhibition % represents the percentage of inhibition of hERG potassium current by the compound, and I and Io represent the amplitude of hERG potassium current after and before dosing, respectively.
Compound IC50 was calculated using GraphPad Prism 5 software by fitting according to the following equation:
Y=Bottom+(Top−Bottom)/(1+10^((LogIC50−X)×HillSlope))
Among the equation, X represents the Log value of the tested concentration of the test sample, Y represents the inhibition percentage at the corresponding concentration, and Bottom and Top represent the minimum and maximum inhibition percentage, respectively.

[1] = Stability test in canine liver microsomes; type: in vitro ADME; conditions: dog
Method: (§1) 6. Stability Test in Canine Liver Microsomes At 37° C., 1 μM of the test compound was incubated with canine liver microsomes (0.5 mg/mL) supplemented with NADPH regeneration system for 5, 15, 30, 45 and 60 minutes, and then LC-MS/MS method was used to detect the concentration of the test compound in the generated sample. The half-life (T1/2) and inherent clearance rate (CLint(mic)) of the compound in canine liver microsome solution were obtained by calculating at the corresponding time points and the remaining percentage of the compound.

PDE10A1 = target: T2, PDE10A1 (Homo sapiens, UniProt Q9Y233); assay: PDE10A1 inhibition by fluorescence polarization; type: biochemical; conditions: PDE10A1 kit, read-out: IC50 (μM), inhibitory effect on PDE10A1
T2 construct: purchased Biomol (BPS Bioscience) BPS-60385
T2 sequence (Q9Y233 1-779 isoform Q9Y233-1): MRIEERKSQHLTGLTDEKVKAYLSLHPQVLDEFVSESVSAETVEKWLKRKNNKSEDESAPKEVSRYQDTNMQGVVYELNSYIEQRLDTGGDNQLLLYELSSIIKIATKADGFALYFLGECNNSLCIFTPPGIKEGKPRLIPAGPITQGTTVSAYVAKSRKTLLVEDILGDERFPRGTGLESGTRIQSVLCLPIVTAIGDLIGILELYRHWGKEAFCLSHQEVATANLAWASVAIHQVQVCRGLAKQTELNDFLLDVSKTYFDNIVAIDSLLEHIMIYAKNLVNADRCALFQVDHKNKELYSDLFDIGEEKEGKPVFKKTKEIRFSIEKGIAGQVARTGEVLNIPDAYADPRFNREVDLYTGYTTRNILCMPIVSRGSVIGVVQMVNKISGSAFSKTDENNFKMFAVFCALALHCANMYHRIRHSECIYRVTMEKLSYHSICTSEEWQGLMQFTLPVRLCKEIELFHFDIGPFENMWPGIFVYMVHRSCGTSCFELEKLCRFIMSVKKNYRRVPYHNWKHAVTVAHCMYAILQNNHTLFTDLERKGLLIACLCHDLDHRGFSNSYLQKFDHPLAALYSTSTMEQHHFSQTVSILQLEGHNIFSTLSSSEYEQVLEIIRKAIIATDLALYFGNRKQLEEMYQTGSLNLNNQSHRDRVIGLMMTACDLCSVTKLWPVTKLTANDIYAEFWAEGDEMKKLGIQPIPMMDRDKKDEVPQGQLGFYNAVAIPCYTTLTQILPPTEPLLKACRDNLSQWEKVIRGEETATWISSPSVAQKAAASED
Excerpt: 8. Activity of the Compounds on PDE10A1
In this experiment, the effect of the compounds on the inhibition of PDE10A1 activity was detected by the method of fluorescence polarization. PDE10A1 kit was used for detection (Biomol, BPS-60385). […]

[2] = Stability test in mouse liver microsomes; type: in vitro ADME; conditions: mouse liver microsomes 0.5 mg/mL, 1 μM compound, NADPH, 37° C.; for microsomal CLint at 1 μM: read-out: CLint(mic)
Method: as §1, with “3.” for “6.”, “Mouse” for “Canine”, “mouse” for “canine”, “10, 20, 30” for “15, 30, 45”

[3] = Stability test in monkey liver microsomes; type: in vitro ADME
Method: as §1, with “4.” for “6.”, “Monkey” for “Canine”, “monkey” for “canine”

[4] = Stability test in human liver microsomes; type: in vitro ADME; conditions: human liver microsomes 0.5 mg/mL, 1 μM compound, NADPH, 37° C.
Method: as §1, with “7.” for “6.”, “Human” for “Canine”, “human” for “canine”, “10, 20, 30” for “15, 30, 45”

microsomal CLint at 1 μM ([1]; microsomes) | half-life at 1 μM ([1]; canine liver microsomes 0.5 mg/mL, 1 μM compound, NADPH, 37° C.) | IC50 (PDE10A1) | half-life at 1 μM [2] | microsomal CLint at 1 μM [2] | half-life at 1 μM ([3]; monkey liver microsomes 0.5 mg/mL, 1 μM compound, NADPH, 37° C.) | microsomal CLint at 1 μM ([3]; monkey, microsomes) | half-life at 1 μM [4] | microsomal CLint at 1 μM ([4]; read-out: CLint(mic)) | Compound | pIC50 (hERG potassium channel)
0.23 µL/min/mg | 102 h |  |  |  |  |  |  |  | N#Cc1ccc(COc2cccc(C3CCN(Cc4nc5sc(C(=O)O)cc5n4C[C@@H]4CCO4)CC3)n2)c(F)c1 [Compound 1, (S)-2-((4-(6-((4-cyano-2-fluorobenzyl)oxy)pyridin-2-yl)piperidin-1-yl)methyl)-1-(oxetan-2-ylmethyl)-1H-thieno[2,3-d]imidazole-5-carboxylic acid] | 4.47
 |  | > 500 µM | 23.6 h | 0.977 µL/min/mg | 14 h | 1.6 µL/min/mg |  |  | N#Cc1ccc(COc2cccc(C3=CCN(Cc4nc5sc(C(=O)O)cc5n4C[C@@H]4CCO4)CC3)n2)c(F)c1 [Compound 2, (S)-2-((6-((4-cyano-2-fluorobenzyl)oxy)-3′,6′-dihydro-[2,4′-bipyridin]-1′(2′H)-yl)methyl)-1-(oxetan-2-ylmethyl)-1H-thieno[2,3-d]imidazole-5-carboxylic acid] | 4.28
 |  |  | 93.1 h | 0.252 µL/min/mg |  |  |  |  | CC1(c2ccc(C#N)cc2F)Oc2cccc(C3CCN(Cc4nc5sc(C(=O)O)cc5n4C[C@@H]4CCO4)CC3)c2O1 (stereo partly shown) [Compound 5-2] | < 4.40
 |  |  | 2.17 h | 10.6 µL/min/mg |  |  | 2.88 h | 8.01 µL/min/mg | N#Cc1ccc(COc2cccc(-c3ccc(Cc4nc5ccc(C(=O)O)cc5n4C[C@@H]4CCO4)c(F)c3)n2)c(F)c1 [Compound DZ-6, reference compound] | 
